Read-outs that look alike come from different tables or passages of the source.
Key:
[1] = clinical
Description: The graph is based on the oral nicotine administration protocol administering a 6 mg nicotine tablet every 6 hours, as described in International Patent Publication No. WO 2013/006643, the entirety of which is incorporated by reference herein.
To obtain the graph shown in FIG. 2, the plasma concentration-time profile of oral nicotine was simulated using the pharmacokinetic equation (equation 1) for multiple-dose oral administration: […]
where F is oral bioavailability. D is oral dose, ka is absorption rate constant. Vd is volume of distribution, ke is elimination rate constant, s is dose interval, n is the number of dose, and C is the plasma concentration at any time ‘t’.
The pharmacokinetic parameters F, D, and T were obtained from Hukkanen, J. et al. Pharmacol Rev. 2005 March; 57(1):79-115 and U.S. Patent Publication No. 20130017259A1. Further, the pharmacokinetic parameter absorption rate constant (ka) shown in the above table was obtained by fitting the orally administered nicotine PK data (obtained from Benowitz, N. L. et al. Clin Pharmacol Ther. 1991 March; 49(3):270-7) to a two-compartmental pharmacokinetic model (shown in FIG. 4). Pharmacokinetic parameters Vd (volume of distribution) and ke (elimination rate constant) were obtained by fitting intravenously administered nicotine PK data (obtained from Benowitz, N. L. et al. Clin Pharmacol Ther. 1991 March; 49(3):270-7) to the two-compartmental model shown in FIG. 4 without the absorption component and lag component.

[2] = transdermal delivery device, clinical PK data fitted to two-compartmental model with lag compartment
Source text: To obtain the graphs shown in FIGS. 5-7, the plasma concentration-time profile of nicotine administered transdermally was simulated by means of a two compartmental model, as shown in FIG. 4. In addition to the two compartments (Central and peripheral), the lag compartment was included to take absorption lag into account associated with transdermal delivery.

[3] = oral nicotine, human; from Hukkanen et al. and US 20130017259A1; cited from earlier work
[4] = amnestic MCI subjects, six months, cited from earlier work

CN1CCCC1c1cccnc1 (stereo not drawn) [nicotine]
Vd ([1]; human, plasma, iv): 76 L | ke (elimination rate constant), average value ([1]; intravenous nicotine PK data of Benowitz et al. fitted to two-compartmental model without absorption and lag components): 0.9 h⁻¹ | ka (absorption rate constant), average value ([1]; oral nicotine PK data of Benowitz et al. fitted to two-compartmental model): 2.5 h⁻¹ | Vd (volume of distribution), average value [2]: 59 L | ka (absorption rate constant), average value [2]: 0.29 h⁻¹ | ke (elimination rate constant), average value [2]: 2.15 h⁻¹ | F (oral bioavailability), average value [3]: 0.32 | effect on attention, memory and psychomotor speed ([4]; 15 mg per day transdermal nicotine vs placebo): significant nicotine-associated improvements in attention, memory, and psychomotor speed | safety and tolerability ([4]; 15 mg per day transdermal nicotine): excellent safety and tolerability

— patent US20200368175A1, “METHODS AND DEVICES FOR TREATING LEVODOPA INDUCED DYSKINESIA” (CHRONO THERAPEUTICS INC., priority 2017, published 2020)
